Measurements taken from PubChem BioAssay (NCI).
Values joined by “and” are separate entries in the source; they are usually repeats but may differ in a detail not shown here. Equal values may be shown once.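 Five concentrations, 48 hours, 96-well plates. GI50 is the concentration that inhibits growth by half. TGI: total growth inhibition.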

Tests used:
Assay in all cases: NCI tumour cell line growth inhibition, 48 h
SW-620 colon = test system: SW-620 colon
OVCAR-5 ovarian = test system: OVCAR-5 ovarian
A498 renal = test system: A498 renal
SF-268 CNS = test system: SF-268 CNS
UO-31 renal = test system: UO-31 renal
NCI-H23 lung = test system: NCI-H23 lung
786-0 renal = test system: 786-0 renal
SF-295 CNS = test system: SF-295 CNS
SF-539 CNS = test system: SF-539 CNS
NCI-H226 lung = test system: NCI-H226 lung

Row | SMILES | GI50 (SW-620 colon) [µM] | TGI (SW-620 colon) [µM] | GI50 (OVCAR-5 ovarian) [µM] | TGI (OVCAR-5 ovarian) [µM] | GI50 (A498 renal) | TGI (A498 renal) [µM] | GI50 (SF-268 CNS) | TGI (SF-268 CNS) [µM] | GI50 (UO-31 renal) [µM] | TGI (UO-31 renal) [µM] | GI50 (NCI-H23 lung) | TGI (NCI-H23 lung) [µM] | GI50 (786-0 renal) | TGI (786-0 renal) [µM] | GI50 (SF-295 CNS) [µM] | TGI (SF-295 CNS) [µM] | GI50 (SF-539 CNS) | TGI (SF-539 CNS) [µM] | TGI (NCI-H226 lung) [µM] | GI50 (NCI-H226 lung) [µM]
1 | CC1=C(C#N)C23C(=O)c4ccccc4C(O)=C2C(=O)C=CC3(O)N1Cc1ccccc1 (centres undefined) | 37.1 | > 100 | 30.3 | > 100 | > 100 µM | > 100 | 40.3 µM | > 100 | 18 | > 100 | 29.9 µM | > 100 | 44.5 µM | > 100 | 17.6 | > 100 | 48.2 µM | > 100 |  | 
2 | CCNC1C2(CCCCC2)NC(=O)C12CCCCC2 (centres undefined) |  | > 100 |  | > 100 |  | > 100 |  |  |  | > 100 |  | > 100 |  | > 100 |  | > 100 |  | > 100 | > 100 | 
3 | COC(=O)[C@@H](C)C[C@H](Cc1ccc(F)cc1)NC(=O)c1csc([C@@H](C[C@H](C(C)C)N(C)C(=O)[C@@H](NC(=O)[C@H]2CCCCN2C)C(C)C)OC(C)=O)n1 |  | > 16.7 |  | > 16.7 | 0.00469 µM and 0.0202 µM | 0.111 | 0.00441 µM and 0.00923 µM | > 16.7 |  | > 16.7 | 0.00355 µM and 0.0134 µM | > 16.7 | 0.00319 µM and 0.0147 µM | > 16.7 |  | > 16.7 | 0.00153 µM and 0.00714 µM |  |  | 
4 | N#CC(C#N)=c1ccc(=C2NCC3CCCN23)cc1 (centres undefined) |  | > 100 |  | > 100 |  | > 100 |  | > 100 |  | > 100 |  |  |  | > 100 |  | > 100 |  | > 100 | > 100 | 
5 | C=CCc1cc(OC)c2c(c1)C(O)CC(c1ccc(OC)c(OC)c1)O2 (centres undefined) |  | > 100 |  | > 100 |  |  |  | > 100 |  | > 100 |  | > 100 |  | > 100 |  | > 100 |  | > 100 | > 100 | 
6 | Cc1cc(=O)[nH]c(NNC(C#N)c2cccc(O)c2)n1 (centres undefined) |  | > 100 |  | > 100 |  |  |  | > 100 |  | > 100 |  | > 100 |  | > 100 |  | > 100 |  | > 100 | > 100 | 
7 | CNC(=O)c1ccccc1Nc1nc(Nc2ccc(N3CCOCC3)cc2OC)ncc1Cl | 0.314 | > 100 |  |  | 0.488 µM | 2.39 | 1.57 µM | > 100 | 0.4 | 4.44 | 0.571 µM | > 43.8 | 1.03 µM | > 35.1 | 0.503 | 11.1 | 1.29 µM | 7.68 | > 74 | 1.01
8 | CC(=O)NC1=C(NCC(C)(C)C)C(=O)c2ccccc2C1=O |  | > 100 |  |  |  |  |  | > 100 |  | > 100 |  | > 100 |  | > 100 |  | > 100 |  | > 100 | > 100 | 
9 | COc1cccc(NC(=O)CC(=O)n2nc(C)c(N=Nc3ccccc3)c2C)c1 |  | > 100 |  |  |  | > 100 |  | > 100 |  | > 100 |  | > 100 |  | > 100 |  | > 100 |  | > 100 | > 100 | 
10 | CC1CN1P1(N2CC2C)=NP(N2CC2C)(N2CC2C)=NP(N2CC2C)(N2CC2C)=N1 (centres undefined) |  | > 50 |  |  |  | > 50 |  | > 50 |  | > 50 |  | > 50 |  | > 50 |  | > 50 |  | > 50 | > 50 | 
11 | NC(CCc1nc(-c2ccc(Cl)cc2)cs1)C(=O)O (centres undefined) |  | > 100 |  | > 100 |  | > 100 |  | > 100 |  | > 100 |  | > 100 |  | > 100 |  | > 100 |  |  | > 100 | 
12 | CCOC(=O)C(Sc1ccccc1)c1c(OC)cc(=O)oc1/C=[N+](/[O-])c1ccc(N(C)C)cc1 (centres undefined) |  | 32.2 |  | 83.1 |  | > 100 |  | > 100 |  | 41.9 |  | 78.5 |  | 42.4 |  | 67 |  | 56.9 |  | 
13 | CSCCCN(CCCSC)CCCSC |  | > 100 |  | > 100 |  |  |  | > 100 |  | > 100 |  | > 100 |  | > 100 |  | > 100 |  | > 100 |  | 
14 | CNC(=O)c1cc(Oc2ccc3nc(NC(=O)Nc4ccc(Cl)c(C(F)(F)F)c4)sc3c2)ccn1 | 2.99 | > 100 | 2.46 | 7.55 | 2.49 µM | 12.2 | 2.34 µM | 16.4 |  |  | 2.48 µM | 8.17 | 1.79 µM | 3.4 | 1.79 | 3.71 |  |  | 7.47 | 2.69
15 | CC(C)=CCCc1c(C)ccc2c1C(=O)C(=O)C(C(C)C)=C2 |  | 7.05 |  |  |  | > 22 |  | 11.8 |  | > 22 |  | 8.52 |  | 7.07 |  | > 22 |  | 8.84 | > 22 | 
16 | COc1ccc(-c2cc(=O)c3ccc(O)cc3o2)c(OC)c1OC |  | > 100 |  |  |  |  |  | > 100 |  |  |  | > 100 |  | > 100 |  | > 100 |  | > 100 | > 100 | 
17 | Cc1cc2nc(C(Cl)Cl)nc(-c3ccc(Cl)cc3)n2n1 | 0.433 | 2.93 | 1.85 | 5.56 | 1.09 µM | 2.65 | 1.34 µM | 4.47 | 1.42 | 3.92 | 0.479 µM | 2.42 | 4.93 µM | > 100 | 1.3 | 4.75 |  |  | > 100 | 3.28
18 | COc1ccc2c(c1)C1(C=N2)CCN(C(C)=O)CC1 |  | > 100 |  | > 100 |  | > 100 |  | > 100 |  |  |  | > 100 |  | > 100 |  | > 100 |  | > 100 |  | 
19 | COc1cc2cnc3c4cc(OC(C)C)c(OC)cc4ccc3c2cc1OC |  | > 100 |  | > 100 |  | > 100 |  | > 100 |  | > 100 |  | > 100 |  | > 100 |  | > 100 |  | > 100 |  | 
20 | COc1ccc2c(c1)C(=O)/C(=C/c1ccc(OCC(=O)Nc3nccs3)cc1)O2 | 2.88 | 10.2 | 1.79 | 10.2 | 7.99 µM | 26.2 |  |  | 0.215 | 0.374 | 0.711 µM | 19.9 | 0.237 µM | 0.563 |  |  | 0.184 µM | 0.361 | 34.8 | 12.8
21 | CCOC(=O)C1=C(C)CC2C(=O)OC(=O)C2C1(C)C (centres undefined) |  | > 100 |  | > 100 |  |  |  | > 100 |  | > 100 |  | > 100 |  | > 100 |  | > 100 |  | > 100 | > 100 | 
